Test results as given in the kinase profiling compilation of Christmann-Franck et al. (2016).

Key:
Assay in all cases: KINOMEscan competition binding
Conditions in all cases: compound 10.0 µM
[1] = target: BLK (human) (UniProt P51451)
[2] = target: BMPR1A (human) (UniProt P36894)
[3] = target: BMPR1B (human) (UniProt O00238)
[4] = target: BMPR2 (human) (UniProt Q13873)
[5] = target: BRSK1 (human) (UniProt Q8TDC3)
[6] = target: BRSK2 (human) (UniProt Q8IWQ3)
[7] = target: CAMK1D (human) (UniProt Q8IU85)
[8] = target: CDK14 (human) (UniProt O94921)
[9] = target: CDK15 (human) (UniProt Q96Q40)
[10] = target: CDK5 (human) (UniProt Q00535)
[11] = target: CDK7 (human) (UniProt P50613)
[12] = target: CDK9 (human) (UniProt P50750)
[13] = target: DCLK1 (human) (UniProt O15075)
[14] = target: FGFR2 (human) (UniProt P21802)
[15] = target: FLT3 (human) (UniProt P36888)
[16] = tested on: FLT3 (human), P36888 [ITD]
[17] = target: GSK3B (human) (UniProt P49841)
[18] = target: IKBKE (human) (UniProt Q14164)
[19] = target: JAK1 JH1 catalytic (human) (UniProt P23458)
[20] = target: LATS1 (human) (UniProt O95835)
[21] = target: LIMK1 (human) (UniProt P53667)
[22] = target: LYN (human) (UniProt P07948)
[23] = target: MAP3K7 (human) (UniProt O43318)
[24] = target: MAP3K9 (human) (UniProt P80192)
[25] = target: MAP4K1 (human) (UniProt Q92918)
[26] = target: MAPK9 (human) (UniProt P45984)
[27] = target: MARK3 (human) (UniProt P27448)
[28] = target: NEK2 (human) (UniProt P51955)
[29] = target: NTRK3 (human) (UniProt Q16288)
[30] = target: PIK3CB (human) (UniProt P42338)
[31] = target: PLK1 (human) (UniProt P53350)
[32] = target: PRKD3 (human) (UniProt O94806)
[33] = target: RPS6KA3 KD1 (human) (UniProt P51812)
[34] = target: RPS6KA5 KD1 (human) (UniProt O75582)
[35] = target: STK11 (human) (UniProt Q15831)
[36] = target: STK16 (human) (UniProt O75716)
[37] = target: STK4 (human) (UniProt Q13043)
[38] = target: TSSK1B (human) (UniProt Q9BXA7)
[39] = target: TYK2 JH2 pseudokinase (human) (UniProt P29597)
[40] = target: YES1 (human) (UniProt P07947)
Sequence of YES1 (human) (P07947 whole entry, looked up): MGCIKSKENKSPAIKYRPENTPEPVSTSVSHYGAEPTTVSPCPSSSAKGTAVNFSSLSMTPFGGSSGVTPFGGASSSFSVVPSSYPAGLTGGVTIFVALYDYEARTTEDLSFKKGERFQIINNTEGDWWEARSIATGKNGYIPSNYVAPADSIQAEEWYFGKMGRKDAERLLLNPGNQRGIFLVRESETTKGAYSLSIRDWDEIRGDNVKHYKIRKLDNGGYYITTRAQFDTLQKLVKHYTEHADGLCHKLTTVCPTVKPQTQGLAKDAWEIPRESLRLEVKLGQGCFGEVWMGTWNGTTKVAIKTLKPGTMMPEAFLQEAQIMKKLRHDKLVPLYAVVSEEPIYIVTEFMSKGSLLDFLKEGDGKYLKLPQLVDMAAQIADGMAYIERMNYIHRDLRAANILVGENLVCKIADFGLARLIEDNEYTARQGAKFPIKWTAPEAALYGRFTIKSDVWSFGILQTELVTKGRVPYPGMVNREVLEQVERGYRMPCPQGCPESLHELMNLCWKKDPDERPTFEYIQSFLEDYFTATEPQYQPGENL

Sequence of CDK15 (human) (Q96Q40 whole entry, looked up): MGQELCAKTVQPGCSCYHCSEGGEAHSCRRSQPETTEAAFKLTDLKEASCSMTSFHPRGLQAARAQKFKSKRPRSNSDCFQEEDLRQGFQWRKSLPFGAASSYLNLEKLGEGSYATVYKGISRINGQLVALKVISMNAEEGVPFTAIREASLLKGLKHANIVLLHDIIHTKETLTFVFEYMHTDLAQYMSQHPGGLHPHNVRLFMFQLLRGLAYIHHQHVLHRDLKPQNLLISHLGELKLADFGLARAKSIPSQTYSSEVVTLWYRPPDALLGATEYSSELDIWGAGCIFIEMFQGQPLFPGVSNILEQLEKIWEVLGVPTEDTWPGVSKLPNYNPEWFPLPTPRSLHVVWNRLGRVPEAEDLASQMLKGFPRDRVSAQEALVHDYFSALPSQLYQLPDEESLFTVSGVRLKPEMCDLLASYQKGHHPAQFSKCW
Sequence of DCLK1 (human) (O15075 whole entry, looked up): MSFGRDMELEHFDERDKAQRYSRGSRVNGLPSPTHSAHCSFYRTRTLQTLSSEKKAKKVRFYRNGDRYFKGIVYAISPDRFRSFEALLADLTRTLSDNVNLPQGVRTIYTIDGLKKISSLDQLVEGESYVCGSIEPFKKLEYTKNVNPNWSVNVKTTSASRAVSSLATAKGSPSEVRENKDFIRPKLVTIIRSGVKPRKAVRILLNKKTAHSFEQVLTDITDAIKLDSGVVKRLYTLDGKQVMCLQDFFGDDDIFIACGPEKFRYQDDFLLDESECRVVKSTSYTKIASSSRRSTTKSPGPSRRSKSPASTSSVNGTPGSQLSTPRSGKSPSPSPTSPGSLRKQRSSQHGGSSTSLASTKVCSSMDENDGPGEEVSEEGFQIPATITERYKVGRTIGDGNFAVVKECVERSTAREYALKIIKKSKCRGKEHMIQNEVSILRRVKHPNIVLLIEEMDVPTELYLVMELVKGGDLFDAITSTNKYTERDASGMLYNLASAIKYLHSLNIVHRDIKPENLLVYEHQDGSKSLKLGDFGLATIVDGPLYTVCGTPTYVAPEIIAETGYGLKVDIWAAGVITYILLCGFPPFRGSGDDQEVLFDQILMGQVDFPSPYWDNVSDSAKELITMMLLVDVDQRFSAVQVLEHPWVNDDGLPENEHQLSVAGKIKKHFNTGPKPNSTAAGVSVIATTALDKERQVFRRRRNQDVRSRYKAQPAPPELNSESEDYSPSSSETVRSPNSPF
Sequence of BMPR1A (human) (P36894 whole entry, looked up): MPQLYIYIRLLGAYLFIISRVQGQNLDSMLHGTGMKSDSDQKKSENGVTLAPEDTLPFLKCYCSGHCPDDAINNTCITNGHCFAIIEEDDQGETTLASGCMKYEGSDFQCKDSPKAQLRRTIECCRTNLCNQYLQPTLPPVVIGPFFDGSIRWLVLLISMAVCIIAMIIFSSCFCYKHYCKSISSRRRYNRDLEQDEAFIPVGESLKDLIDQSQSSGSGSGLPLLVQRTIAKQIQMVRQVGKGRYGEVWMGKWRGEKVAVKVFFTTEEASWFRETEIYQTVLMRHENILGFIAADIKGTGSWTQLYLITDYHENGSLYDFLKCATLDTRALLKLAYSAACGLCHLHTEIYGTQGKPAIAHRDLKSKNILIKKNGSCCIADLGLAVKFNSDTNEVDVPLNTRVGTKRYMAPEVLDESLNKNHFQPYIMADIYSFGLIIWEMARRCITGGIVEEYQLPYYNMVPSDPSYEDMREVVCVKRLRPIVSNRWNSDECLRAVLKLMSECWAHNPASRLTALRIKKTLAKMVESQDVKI
Sequence of STK4 (human) (Q13043 whole entry, looked up): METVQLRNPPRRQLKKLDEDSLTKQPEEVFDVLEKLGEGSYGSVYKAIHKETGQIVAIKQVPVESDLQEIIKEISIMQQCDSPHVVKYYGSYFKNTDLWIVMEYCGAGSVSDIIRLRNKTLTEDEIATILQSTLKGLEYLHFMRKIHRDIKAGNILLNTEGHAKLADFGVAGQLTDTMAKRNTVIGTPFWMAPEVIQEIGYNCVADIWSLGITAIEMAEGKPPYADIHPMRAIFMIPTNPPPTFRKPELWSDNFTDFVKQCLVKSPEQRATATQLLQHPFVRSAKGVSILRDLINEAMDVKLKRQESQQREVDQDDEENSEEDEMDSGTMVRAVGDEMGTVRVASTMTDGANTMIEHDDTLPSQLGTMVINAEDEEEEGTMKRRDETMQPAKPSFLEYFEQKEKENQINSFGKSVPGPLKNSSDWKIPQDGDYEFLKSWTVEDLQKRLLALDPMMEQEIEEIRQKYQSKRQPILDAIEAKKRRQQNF
Sequence of NTRK3 (human) (Q16288 whole entry, looked up): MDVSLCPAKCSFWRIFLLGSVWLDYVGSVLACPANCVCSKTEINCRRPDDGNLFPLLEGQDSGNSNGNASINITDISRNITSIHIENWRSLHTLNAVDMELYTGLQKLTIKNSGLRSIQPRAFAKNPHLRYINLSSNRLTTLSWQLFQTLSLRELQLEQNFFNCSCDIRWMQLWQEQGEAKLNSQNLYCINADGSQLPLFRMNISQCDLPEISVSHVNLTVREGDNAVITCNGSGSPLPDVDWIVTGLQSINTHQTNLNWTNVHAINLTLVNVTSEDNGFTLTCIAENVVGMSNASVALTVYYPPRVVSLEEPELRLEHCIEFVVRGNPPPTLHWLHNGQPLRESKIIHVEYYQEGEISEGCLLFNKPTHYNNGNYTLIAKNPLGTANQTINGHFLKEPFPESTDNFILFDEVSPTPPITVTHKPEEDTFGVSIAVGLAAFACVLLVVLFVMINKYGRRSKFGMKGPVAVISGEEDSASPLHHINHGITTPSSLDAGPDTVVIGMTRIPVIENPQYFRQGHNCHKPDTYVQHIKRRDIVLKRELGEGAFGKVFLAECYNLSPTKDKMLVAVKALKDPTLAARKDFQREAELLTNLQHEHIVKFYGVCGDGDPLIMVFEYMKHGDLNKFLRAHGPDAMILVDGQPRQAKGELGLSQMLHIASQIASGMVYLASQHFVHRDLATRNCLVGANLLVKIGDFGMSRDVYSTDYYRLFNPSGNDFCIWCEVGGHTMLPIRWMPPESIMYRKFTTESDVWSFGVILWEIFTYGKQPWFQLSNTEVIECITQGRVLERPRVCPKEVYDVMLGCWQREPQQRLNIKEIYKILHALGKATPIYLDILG
Sequence of TSSK1B (human) (Q9BXA7 whole entry, looked up): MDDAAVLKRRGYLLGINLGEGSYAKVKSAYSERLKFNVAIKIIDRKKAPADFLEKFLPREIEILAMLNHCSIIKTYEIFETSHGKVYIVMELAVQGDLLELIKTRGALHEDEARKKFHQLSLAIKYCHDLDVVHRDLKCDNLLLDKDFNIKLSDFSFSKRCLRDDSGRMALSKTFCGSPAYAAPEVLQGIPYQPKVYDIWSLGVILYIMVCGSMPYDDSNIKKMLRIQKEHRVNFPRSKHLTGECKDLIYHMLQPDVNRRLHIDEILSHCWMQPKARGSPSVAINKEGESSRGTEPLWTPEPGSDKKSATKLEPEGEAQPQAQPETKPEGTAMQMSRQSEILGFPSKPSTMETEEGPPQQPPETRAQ
Sequence of BRSK1 (human) (Q8TDC3 whole entry, looked up): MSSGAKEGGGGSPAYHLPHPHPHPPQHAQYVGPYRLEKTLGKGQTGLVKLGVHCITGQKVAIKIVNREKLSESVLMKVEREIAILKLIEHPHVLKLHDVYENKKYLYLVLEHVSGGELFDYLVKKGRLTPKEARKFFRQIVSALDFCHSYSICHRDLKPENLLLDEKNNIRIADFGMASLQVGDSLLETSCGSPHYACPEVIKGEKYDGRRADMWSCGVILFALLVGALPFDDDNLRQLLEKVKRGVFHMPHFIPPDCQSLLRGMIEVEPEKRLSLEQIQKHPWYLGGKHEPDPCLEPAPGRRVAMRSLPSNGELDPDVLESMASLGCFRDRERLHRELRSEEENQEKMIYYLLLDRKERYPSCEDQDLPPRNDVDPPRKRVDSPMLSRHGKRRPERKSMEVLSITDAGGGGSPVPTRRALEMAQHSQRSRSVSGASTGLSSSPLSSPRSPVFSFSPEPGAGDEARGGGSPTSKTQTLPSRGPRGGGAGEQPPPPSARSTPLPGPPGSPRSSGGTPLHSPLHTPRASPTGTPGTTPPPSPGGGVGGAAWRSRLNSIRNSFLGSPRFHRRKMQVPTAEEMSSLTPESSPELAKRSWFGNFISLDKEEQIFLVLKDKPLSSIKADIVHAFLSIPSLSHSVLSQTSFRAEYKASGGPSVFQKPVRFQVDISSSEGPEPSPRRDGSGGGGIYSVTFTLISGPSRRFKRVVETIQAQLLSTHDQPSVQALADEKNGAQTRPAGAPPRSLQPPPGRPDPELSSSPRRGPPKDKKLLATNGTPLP
Sequence of CDK5 (human) (Q00535 whole entry, looked up): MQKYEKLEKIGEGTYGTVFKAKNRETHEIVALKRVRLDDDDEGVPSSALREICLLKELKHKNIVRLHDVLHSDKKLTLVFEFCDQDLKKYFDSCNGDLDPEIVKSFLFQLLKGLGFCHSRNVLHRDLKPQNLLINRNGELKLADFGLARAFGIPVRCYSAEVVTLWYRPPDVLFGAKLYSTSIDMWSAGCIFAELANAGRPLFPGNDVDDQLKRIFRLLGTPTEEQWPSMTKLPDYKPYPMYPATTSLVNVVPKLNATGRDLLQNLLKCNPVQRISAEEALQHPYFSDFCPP

**Q.** Which results are given for `Nc1ccc(-c2ccc3ncc4ccc(=O)n(-c5cccc(C(F)(F)F)c5)c4c3c2)cn1`?
**A.** kinase still bound, per cent of control [1]: 98%; kinase still bound, per cent of control [2]: 100%; kinase still bound, per cent of control [3]: 86%; kinase still bound, per cent of control [4]: 100%; kinase still bound, per cent of control [5]: 88%; kinase still bound, per cent of control [6]: 100%; kinase still bound, per cent of control [7]: 100%; kinase still bound, per cent of control [8]: 97%; kinase still bound, per cent of control [9]: 94%; kinase still bound, per cent of control [10]: 92%; kinase still bound, per cent of control [11]: 51%; kinase still bound, per cent of control [12]: 93%; kinase still bound, per cent of control [13]: 97%; kinase still bound, per cent of control [14]: 90%; kinase still bound, per cent of control [15]: 12%; kinase still bound, per cent of control [16]: 45%; kinase still bound, per cent of control [17]: 100%; kinase still bound, per cent of control [18]: 89%; kinase still bound, per cent of control [19]: 92%; kinase still bound, per cent of control [20]: 100%; kinase still bound, per cent of control [21]: 100%; kinase still bound, per cent of control [22]: 100%; kinase still bound, per cent of control [23]: 48%; kinase still bound, per cent of control [24]: 100%; kinase still bound, per cent of control [25]: 100%; kinase still bound, per cent of control [26]: 89%; kinase still bound, per cent of control [27]: 100%; kinase still bound, per cent of control [28]: 100%; kinase still bound, per cent of control [29]: 100%; kinase still bound, per cent of control [30]: 6.6%; kinase still bound, per cent of control [31]: 94%; kinase still bound, per cent of control [32]: 100%; kinase still bound, per cent of control [33]: 80%; kinase still bound, per cent of control [34]: 100%; kinase still bound, per cent of control [35]: 98%; kinase still bound, per cent of control [36]: 59%; kinase still bound, per cent of control [37]: 100%; kinase still bound, per cent of control [38]: 100%; kinase still bound, per cent of control [39]: 6.3%; kinase still bound, per cent of control [40]: 100%

**Q.** Which results are given for `CCCS(=O)(=O)Nc1ccc(F)c(C(=O)c2c[nH]c3ncc(-c4ccc(Cl)cc4)cc23)c1F`?
**A.** kinase still bound, per cent of control [1]: 2.2%; kinase still bound, per cent of control [2]: 34%; kinase still bound, per cent of control [3]: 67%; kinase still bound, per cent of control [4]: 57%; kinase still bound, per cent of control [5]: 100%; kinase still bound, per cent of control [6]: 100%; kinase still bound, per cent of control [7]: 100%; kinase still bound, per cent of control [8]: 100%; kinase still bound, per cent of control [9]: 96%; kinase still bound, per cent of control [10]: 96%; kinase still bound, per cent of control [11]: 82%; kinase still bound, per cent of control [12]: 100%; kinase still bound, per cent of control [13]: 88%; kinase still bound, per cent of control [14]: 64%; kinase still bound, per cent of control [15]: 2.4%; kinase still bound, per cent of control [17]: 100%; kinase still bound, per cent of control [18]: 100%; kinase still bound, per cent of control [19]: 28%; kinase still bound, per cent of control [20]: 100%; kinase still bound, per cent of control [21]: 27%; kinase still bound, per cent of control [22]: 16%; kinase still bound, per cent of control [23]: 69%; kinase still bound, per cent of control [24]: 52%; kinase still bound, per cent of control [25]: 20%; kinase still bound, per cent of control [26]: 50%; kinase still bound, per cent of control [27]: 61%; kinase still bound, per cent of control [28]: 71%; kinase still bound, per cent of control [29]: 65%; kinase still bound, per cent of control [30]: 100%; kinase still bound, per cent of control [31]: 100%; kinase still bound, per cent of control [32]: 44%; kinase still bound, per cent of control [33]: 76%; kinase still bound, per cent of control [34]: 98%; kinase still bound, per cent of control [35]: 75%; kinase still bound, per cent of control [36]: 84%; kinase still bound, per cent of control [37]: 11%; kinase still bound, per cent of control [38]: 99%; kinase still bound, per cent of control [39]: 100%; kinase still bound, per cent of control [40]: 18%

**Q.** Which kinase still bound, per cent of control [1] does the source give for `CCC(=O)N1CCN(c2ccc(-n3c(=O)ccc4cnc5ccc(-c6cnc7ccccc7c6)cc5c43)cc2C(F)(F)F)CC1` here?
**A.** Its kinase still bound, per cent of control is 75%.

**Q.** What about the kinase still bound, per cent of control [2] of the same compound?
**A.** Its kinase still bound, per cent of control is 100%.

**Q.** And the kinase still bound, per cent of control [4]?
**A.** The kinase still bound, per cent of control was 59%.

**Q.** What about the kinase still bound, per cent of control [5] of the same compound?
**A.** The kinase still bound, per cent of control was 78%.

**Q.** What about the kinase still bound, per cent of control [6] of the same compound?
**A.** The kinase still bound, per cent of control was 76%.

**Q.** And the kinase still bound, per cent of control [7]?
**A.** The kinase still bound, per cent of control was 88%.

**Q.** What about the kinase still bound, per cent of control [8] of the same compound?
**A.** Its kinase still bound, per cent of control is 99%.

**Q.** And the kinase still bound, per cent of control [9]?
**A.** The kinase still bound, per cent of control was 88%.

**Q.** And the kinase still bound, per cent of control [10]?
**A.** Its kinase still bound, per cent of control is 100%.

**Q.** And the kinase still bound, per cent of control [11]?
**A.** Its kinase still bound, per cent of control is 57%.

**Q.** What about the kinase still bound, per cent of control [12] of the same compound?
**A.** The kinase still bound, per cent of control was 94%.

**Q.** What about the kinase still bound, per cent of control [13] of the same compound?
**A.** The kinase still bound, per cent of control was 100%.

**Q.** And the kinase still bound, per cent of control [14]?
**A.** Its kinase still bound, per cent of control is 55%.

**Q.** What about the kinase still bound, per cent of control [15] of the same compound?
**A.** Its kinase still bound, per cent of control is 16%.

**Q.** What about the kinase still bound, per cent of control [16] of the same compound?
**A.** Its kinase still bound, per cent of control is 29%.

**Q.** What about the kinase still bound, per cent of control [17] of the same compound?
**A.** The kinase still bound, per cent of control was 100%.

**Q.** And the kinase still bound, per cent of control [18]?
**A.** Its kinase still bound, per cent of control is 87%.

**Q.** And the kinase still bound, per cent of control [19]?
**A.** Its kinase still bound, per cent of control is 82%.

**Q.** What about the kinase still bound, per cent of control [20] of the same compound?
**A.** Its kinase still bound, per cent of control is 100%.

**Q.** What about the kinase still bound, per cent of control [21] of the same compound?
**A.** Its kinase still bound, per cent of control is 15%.

**Q.** And the kinase still bound, per cent of control [22]?
**A.** The kinase still bound, per cent of control was 79%.

**Q.** And the kinase still bound, per cent of control [23]?
**A.** The kinase still bound, per cent of control was 47%.

**Q.** What about the kinase still bound, per cent of control [24] of the same compound?
**A.** Its kinase still bound, per cent of control is 84%.

**Q.** What about the kinase still bound, per cent of control [25] of the same compound?
**A.** The kinase still bound, per cent of control was 30%.

**Q.** And the kinase still bound, per cent of control [26]?
**A.** The kinase still bound, per cent of control was 40%.

**Q.** And the kinase still bound, per cent of control [27]?
**A.** Its kinase still bound, per cent of control is 100%.

**Q.** What about the kinase still bound, per cent of control [28] of the same compound?
**A.** Its kinase still bound, per cent of control is 90%.

**Q.** And the kinase still bound, per cent of control [29]?
**A.** Its kinase still bound, per cent of control is 100%.

**Q.** And the kinase still bound, per cent of control [30]?
**A.** Its kinase still bound, per cent of control is 65%.

**Q.** And the kinase still bound, per cent of control [31]?
**A.** Its kinase still bound, per cent of control is 85%.

**Q.** What about the kinase still bound, per cent of control [32] of the same compound?
**A.** Its kinase still bound, per cent of control is 100%.

**Q.** What about the kinase still bound, per cent of control [33] of the same compound?
**A.** The kinase still bound, per cent of control was 38%.

**Q.** What about the kinase still bound, per cent of control [34] of the same compound?
**A.** The kinase still bound, per cent of control was 100%.

**Q.** What about the kinase still bound, per cent of control [35] of the same compound?
**A.** Its kinase still bound, per cent of control is 100%.

**Q.** And the kinase still bound, per cent of control [36]?
**A.** Its kinase still bound, per cent of control is 18%.

**Q.** What about the kinase still bound, per cent of control [37] of the same compound?
**A.** The kinase still bound, per cent of control was 7.6%.

**Q.** What about the kinase still bound, per cent of control [38] of the same compound?
**A.** The kinase still bound, per cent of control was 100%.

**Q.** And the kinase still bound, per cent of control [39]?
**A.** Its kinase still bound, per cent of control is 55%.

**Q.** What about the kinase still bound, per cent of control [40] of the same compound?
**A.** Its kinase still bound, per cent of control is 74%.
